Literature values in patent US20220008485A1, “Wound Honey” (priority 2020, published 2022).
Where two headings read alike, the source gives them in different places.

Columns and labels:
Pseudomonas aeruginosa = details: for MBC acid: acid alone; for MBC combination Acid/H2O2: acid part: acid combined with H2O2, in Bovine albumin + yeast extract 1%; for MBC combination Acid/H2O2: H2O2 part: in Bovine albumin + yeast extract 1%
spores of B. cereus = details: 0.1% TC, HP at 600 MPA, 7° Celsius, infant formula
[1] = in combination with silver nanoparticles
[2] = acid combined with H2O2, in Bovine albumin + yeast extract 1%
[3] = H2O2 combined with Formic acid, in Bovine albumin + yeast extract 1%

SMILES: CC(=O)O [Acetic, acetic acid]
- MBC acid (Pseudomonas aeruginosa): 0.625%
- MBC combination Acid/H2O2: acid part (Pseudomonas aeruginosa): 0.625%

SMILES: O=CC=Cc1ccccc1 [Cinnamaldehyde, cinnamaldehyde]
- Minimal Inhibitory Concentration, Cinnamaldehyde (Clostridium perfringens; alone): 0.065 mg/mL
- Minimal Inhibitory Concentration, Synergy Cinnamaldehyde (Clostridium perfringens; [1]): 0.016 mg/mL
- Minimal Inhibitory Concentration, Cinnamaldehyde (Bacillus cereus; alone): 0.328 mg/mL
- Minimal Inhibitory Concentration, Synergy Cinnamaldehyde (Bacillus cereus; [1]): 0.082 mg/mL

SMILES: O=CO [Formic, formic acid]
- MBC acid (Pseudomonas aeruginosa): 0.025%
- MBC combination Acid/H2O2: acid part (Pseudomonas aeruginosa): 0.025%
- MBC acid (Enterococcus hirae; acid alone): 5%
- MBC combination Acid/H2O2: acid part (Enterococcus hirae; [2]): 0.625%
- MBC acid (Staphylococcus aureus; acid alone): 1.25%
- MBC combination Acid/H2O2: acid part (Staphylococcus aureus; [2]): 0.312%
- MBC acid (Listeria monocytogenes; acid alone): 1.56%
- MBC combination Acid/H2O2: acid part (Listeria monocytogenes; [2]): 0.625%

SMILES: CCC(=O)O [Propionic, propionic acid]
- MBC acid (Pseudomonas aeruginosa): 0.5%
- MBC combination Acid/H2O2: acid part (Pseudomonas aeruginosa): 0.50%

SMILES: O=C(O)CCC(=O)O [Succinic, succinic acid]
- MBC acid (Pseudomonas aeruginosa): 0.078%
- MBC combination Acid/H2O2: acid part (Pseudomonas aeruginosa): 0.078%

SMILES: O=C/C=C/c1ccccc1 [TC, trans-cinnamaldehyde]
- Mean logarithmic decrease in spores of B. cereus (spores of B. cereus; Week 1): 1.5
- Mean logarithmic decrease in spores of B. cereus (spores of B. cereus; Week 2): 2
- Mean logarithmic decrease in spores of B. cereus (spores of B. cereus; Week 3): 3
- Mean logarithmic decrease in spores of B. cereus (spores of B. cereus; Week 4): 2.25
- Mean logarithmic decrease in spores of B. cereus (spores of B. cereus; Week 5): 3
- Mean logarithmic decrease in spores of B. cereus (spores of B. cereus; Week 6): 1.5

SMILES: OO [hydrogen peroxide]
- MBC combination Acid/H2O2: H2O2 part (Pseudomonas aeruginosa; H2O2 combined with Acetic acid): 0.39%
- MBC combination Acid/H2O2: H2O2 part (Pseudomonas aeruginosa; H2O2 combined with Formic acid): 0.39%
- MBC combination Acid/H2O2: H2O2 part (Pseudomonas aeruginosa; H2O2 combined with Propionic acid): 0.19%
- MBC combination Acid/H2O2: H2O2 part (Pseudomonas aeruginosa; H2O2 combined with Succinic acid): 0.78%
- MBC hydrogen peroxide (Pseudomonas aeruginosa; hydrogen peroxide alone): 1.56%
- MBC combination Acid/H2O2: H2O2 part (Enterococcus hirae; [3]): 3.12%
- MBC hydrogen peroxide (Enterococcus hirae; hydrogen peroxide alone): 12.5%
- MBC combination Acid/H2O2: H2O2 part (Staphylococcus aureus; [3]): 1.56%
- MBC hydrogen peroxide (Staphylococcus aureus; hydrogen peroxide alone): 3.12%
- MBC combination Acid/H2O2: H2O2 part (Listeria monocytogenes; H2O2 combined with Formic (printed Fonnic) acid, in Bovine albumin + yeast extract 1%): 0.78%
- MBC hydrogen peroxide (Listeria monocytogenes; hydrogen peroxide alone): 6.25%
